Assay results taken from US20210255193A1, “LYSINE REACTIVE PROBES AND USES THEREOF” (The Scripps Research Institute, priority 2017, published 2021).

Legend:
Assay in all cases: competitive isoTOP-ABPP
Type in all cases: binding
[1] = molecular target: T1, GLOD4 Glyoxalase domain-containing protein 4 (Homo sapiens, UniProt Q9HC38); conditions: 50 uM, 231 sol, in vitro; for R value (DMSO/fragment) for probe 1 labeling: Q9HC38_K305
T1 construct: endogenous in cells; host or cells: MDA-MB-231 (soluble fraction of lysate)
T1 sequence (Q9HC38 1-313): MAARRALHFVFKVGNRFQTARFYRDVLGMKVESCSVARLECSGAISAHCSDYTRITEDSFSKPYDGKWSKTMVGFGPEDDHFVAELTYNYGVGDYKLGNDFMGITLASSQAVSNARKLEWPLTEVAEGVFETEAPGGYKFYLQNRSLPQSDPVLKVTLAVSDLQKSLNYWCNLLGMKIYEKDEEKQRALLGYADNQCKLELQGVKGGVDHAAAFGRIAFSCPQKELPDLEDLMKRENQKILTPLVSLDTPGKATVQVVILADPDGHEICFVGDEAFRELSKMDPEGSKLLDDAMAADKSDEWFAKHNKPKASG
Experimental: (§1) In vitro covalent fragment treatment for isoTOP-ABPP. All compounds were made up as solutions in DMSO (100×) and were used at a final concentration of 50 μM for activated esters and 100 μM for guanidinylating agents. For each profiling sample, 0.5 ml of lysate was treated with 5 μl of the 100× compound stock solution or 5 μl of DMSO. Samples were treated with activated esters for
(§2) STP-alkyne labeling and click chemistry. For concentration-dependent reactivity measurements by isoTOP-ABPP, 0.5 ml proteome aliquots were treated at ambient temperature with 1 mM STP-alkyne 1 (5 μl of 100 mM stock in DMSO) and 0.1 mM STP alkyne 1 (5 μl of 10 mM stock in DMSO), respectively. For competitive isoTOP-ABPP, after in vitro fragment treatment (detailed above), the samples were labeled for 1 h at ambient temperature with 0.1 mM STP-alkyne 1 (5 μl of 10 mM stock in DMSO). Samples were conjugated by copper-mediated azide-alkyne cycloaddition (CuAAC) to either the light (1 mM STP-alkyne or fragment treated) or heavy (0.1 mM STP-alkyne or DMSO treated) TEV tags (10 μl of 5 mM stocks in DMSO, final concentration=100 μM) using tris(2-carboxyethyl)phosphine hydrochloride
(§3) R value calculation and processing. The ratios of light and heavy MS1 peaks for each unique peptide were quantified with a CIMAGE software using default parameters (3 MS1 acquisitions per peak and signal to noise threshold set to 2.5). For reactivity measurements by isoTOP-ABPP, the R value was calculated from the ratio of MS1 peak areas, comparing the 1 mM STP alkyne sample (light TEV tag) with the 0.1 mM STP alkyne sample (heavy TEV tag). For competitive isoTOP-ABPP, the R value was calculated from the ratio of MS1 peak areas, comparing the DMSO treated sample (heavy TEV tag) with the compound treated sample (light TEV tag). […] Ratios for unique peptide entries are calculated for each experiment; overlapping peptides with the same modified lysine (for example, different charge states, MudPIT chromatographic steps or tryptic termini) are grouped together and the median ratio is reported as the final ratio (R). The peptide ratios reported by CIMAGE were further filtered to ensure the removal or correction of low-quality ratios in each individual data set. The quality filters applied were the following: removal of half tryptic peptides; for ratios with high standard deviations from the median (90% of the median or above) the lowest ratio was taken instead of the median; removal of peptides with R=20 and only a single MS2 event triggered during the elution of the parent ion; manual annotation of all the peptides with ratios of 20, removing any peptides with low quality elution profiles that remained after the previous curation steps (only done for competitive isoTOP-ABPP).
(§4) Cross-data processing for fragment screening. For compound treated samples, biological replicates of the same condition were averaged, if the standard deviation was below 60% of the mean; otherwise, for lysines with at least one R value <4 for a particular compound, the lowest value of the ratio set was taken. For lysines, where all R values for a particular compound were ≥4, the average was reported. For peptides containing several possible modified lysines, the lysine with the highest number of quantification events was used for analysis and the remaining, redundant peptides were reported as alternative modification sites. Peptides included in the aggregate dataset (those used for further bioinformatics and statistical analyses) were required to have been quantified in 2 experiments for competitive isoTOP-ABPP. Lysines were categorized as liganded, if they had at least one ratio R≥4 (hit fragments). For liganded lysines with R=20 for all liganding events, lysines were required to have been quantified with R=20 in two separate experiments and were further required to have been quantified with R<20 in one additional experiment.

[2] = molecular target: T2, TRAP1 Heat shock protein 75 kDa, mitochondrial (Homo sapiens, UniProt Q12931); conditions: 50 uM, 231 sol, in vitro; for R value (DMSO/fragment) for probe 1 labeling: Q12931_K699
T2 construct: isoTOP-ABPP experiments performed in cell lysates (in vitro); endogenous in cells; host or cells: soluble proteome of human cancer cell lines (MDA-MB-231, Ramos, Jurkat)
T2 sequence (Q12931 60-704): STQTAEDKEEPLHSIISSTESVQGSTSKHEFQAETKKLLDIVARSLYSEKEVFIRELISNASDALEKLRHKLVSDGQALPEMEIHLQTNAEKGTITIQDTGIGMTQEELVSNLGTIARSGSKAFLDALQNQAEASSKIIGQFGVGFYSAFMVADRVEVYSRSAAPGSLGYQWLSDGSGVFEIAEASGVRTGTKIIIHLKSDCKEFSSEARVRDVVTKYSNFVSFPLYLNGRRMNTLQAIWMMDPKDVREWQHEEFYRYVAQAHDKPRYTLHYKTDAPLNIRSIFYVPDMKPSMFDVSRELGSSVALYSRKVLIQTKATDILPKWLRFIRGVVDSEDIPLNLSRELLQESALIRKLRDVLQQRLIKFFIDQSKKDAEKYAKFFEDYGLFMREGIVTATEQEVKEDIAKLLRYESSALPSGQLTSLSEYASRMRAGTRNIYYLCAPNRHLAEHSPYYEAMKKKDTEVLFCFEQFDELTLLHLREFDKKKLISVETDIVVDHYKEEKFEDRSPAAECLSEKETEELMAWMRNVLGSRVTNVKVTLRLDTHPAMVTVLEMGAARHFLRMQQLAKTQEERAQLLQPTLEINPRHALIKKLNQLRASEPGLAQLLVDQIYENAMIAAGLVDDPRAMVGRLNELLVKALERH
Experimental: as §1, §2, §3, §4

[3] = molecular target: T3, GLUD1 Glutamate dehydrogenase 1, mitochondrial (Homo sapiens, UniProt P00367); conditions: 50 uM, 231 sol, in vitro; for R value (DMSO/fragment) for probe 1 labeling: P00367_K480
T3 construct: isoTOP-ABPP experiments performed in cell lysates (in vitro); endogenous in cells; host or cells: MDA-MB-231 soluble lysate
Experimental: as §1, §2, §3, §4

[4] = molecular target: T4, XRCC6 X-ray repair cross-complementing protein 6 (Homo sapiens, UniProt P12956); conditions: 50 uM, 231 sol, in vitro; for R value (DMSO/fragment) for probe 1 labeling: P12956_K351
T4 construct: isoTOP-ABPP experiments performed in cell lysates (in vitro); endogenous in cells; host or cells: soluble proteome of human cancer cell lines (MDA-MB-231; Ramos and Jurkat also prepared)
Experimental: as §1, §2, §3, §4

[5] = molecular target: T5, MRPS24 28S ribosomal protein S24, mitochondrial (Homo sapiens, UniProt Q96EL2); conditions: 50 uM, 231 sol, in vitro; for R value (DMSO/fragment) for probe 1 labeling: Q96EL2_K94
T5 construct: isoTOP-ABPP experiments performed in cell lysates (in vitro); endogenous in cells; host or cells: soluble proteome of human cancer cell lines (MDA-MB-231; Ramos and Jurkat also prepared)
Experimental: as §1, §2, §3, §4

T4 sequence (P12956 2-609 limits assumed): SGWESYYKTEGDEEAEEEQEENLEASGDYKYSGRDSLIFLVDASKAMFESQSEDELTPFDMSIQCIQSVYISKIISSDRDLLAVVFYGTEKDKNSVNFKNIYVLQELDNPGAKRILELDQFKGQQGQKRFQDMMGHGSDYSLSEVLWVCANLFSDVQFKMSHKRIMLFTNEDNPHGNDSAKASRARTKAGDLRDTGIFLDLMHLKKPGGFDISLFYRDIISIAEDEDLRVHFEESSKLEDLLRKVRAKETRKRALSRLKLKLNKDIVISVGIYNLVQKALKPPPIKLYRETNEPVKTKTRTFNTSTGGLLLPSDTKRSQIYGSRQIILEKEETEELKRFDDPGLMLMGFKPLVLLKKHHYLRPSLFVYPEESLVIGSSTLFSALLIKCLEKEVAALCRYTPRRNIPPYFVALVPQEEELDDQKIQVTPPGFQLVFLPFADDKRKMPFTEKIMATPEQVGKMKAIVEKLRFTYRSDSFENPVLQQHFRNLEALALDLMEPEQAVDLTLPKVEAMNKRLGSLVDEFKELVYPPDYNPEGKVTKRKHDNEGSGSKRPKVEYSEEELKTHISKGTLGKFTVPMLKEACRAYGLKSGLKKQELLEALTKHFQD
T4 sequence (P13010 2-732 partner limits assumed): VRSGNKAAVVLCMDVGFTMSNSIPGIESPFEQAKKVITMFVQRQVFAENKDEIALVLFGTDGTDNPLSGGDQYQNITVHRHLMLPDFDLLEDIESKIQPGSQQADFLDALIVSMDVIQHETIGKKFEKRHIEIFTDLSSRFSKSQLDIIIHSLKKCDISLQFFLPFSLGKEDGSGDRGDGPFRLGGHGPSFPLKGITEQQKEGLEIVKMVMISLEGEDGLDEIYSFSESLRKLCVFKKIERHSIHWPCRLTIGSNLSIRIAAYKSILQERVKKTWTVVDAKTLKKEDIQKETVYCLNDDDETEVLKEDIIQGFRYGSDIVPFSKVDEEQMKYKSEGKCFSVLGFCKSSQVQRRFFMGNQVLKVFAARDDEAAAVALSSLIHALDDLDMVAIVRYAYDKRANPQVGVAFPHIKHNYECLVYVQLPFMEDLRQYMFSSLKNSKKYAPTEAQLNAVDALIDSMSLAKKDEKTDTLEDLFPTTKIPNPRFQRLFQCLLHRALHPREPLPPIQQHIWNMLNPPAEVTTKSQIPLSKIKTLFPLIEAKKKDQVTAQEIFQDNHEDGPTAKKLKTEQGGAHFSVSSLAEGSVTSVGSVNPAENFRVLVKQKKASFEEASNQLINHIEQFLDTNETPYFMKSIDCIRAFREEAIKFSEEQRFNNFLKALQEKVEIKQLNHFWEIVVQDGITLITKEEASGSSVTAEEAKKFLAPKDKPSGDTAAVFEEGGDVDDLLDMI
T3 sequence (P00367 54-558): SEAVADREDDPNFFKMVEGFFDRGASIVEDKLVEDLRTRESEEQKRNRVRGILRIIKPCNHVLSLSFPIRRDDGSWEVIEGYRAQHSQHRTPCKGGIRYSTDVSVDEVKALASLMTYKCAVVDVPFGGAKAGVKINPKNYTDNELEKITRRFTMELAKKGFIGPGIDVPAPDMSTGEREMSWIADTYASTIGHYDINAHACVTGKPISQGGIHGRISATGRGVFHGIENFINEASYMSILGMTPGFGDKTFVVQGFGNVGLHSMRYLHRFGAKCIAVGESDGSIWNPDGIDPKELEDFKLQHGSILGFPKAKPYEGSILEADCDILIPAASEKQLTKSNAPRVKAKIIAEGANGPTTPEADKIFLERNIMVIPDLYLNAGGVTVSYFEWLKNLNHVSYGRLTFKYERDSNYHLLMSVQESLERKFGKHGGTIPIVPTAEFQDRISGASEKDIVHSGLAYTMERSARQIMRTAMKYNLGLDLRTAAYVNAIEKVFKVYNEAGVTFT

Structure (SMILES) | R value (DMSO/fragment) for probe 1 labeling [1] | R value (DMSO/fragment) for probe 1 labeling [2] | R value (DMSO/fragment) for probe 1 labeling [3] | R value (DMSO/fragment) for probe 1 labeling [4] | R value (DMSO/fragment) for probe 1 labeling [5] | isoTOP-ABPP reactivity ratio at lysine Q96EL2_K94 [5] | isoTOP-ABPP reactivity ratio at lysine Q9HC38_K305 [1] | isoTOP-ABPP reactivity ratio at lysine P00367_K480 [3] | isoTOP-ABPP reactivity ratio at lysine P12956_K351 [4] | isoTOP-ABPP reactivity ratio at lysine Q12931_K699 [2]
O=C(CCc1cn(-c2ccccc2)nc1-c1ccccc1)Oc1c(F)c(F)c(F)c(F)c1F [fragment 19, Pentafluorophenyl 3-(1,3-diphenyl-1H-pyrazol-4-yl)propanoate] | 0.9 | 1.2 | 1.0 | 1.7 | 1.4 | – | – | – | – | –
O=C(Oc1c(F)c(F)c(F)c(F)c1F)C(c1ccccc1)c1ccccc1 [fragment 20, Pentafluorophenyl 2,2-diphenylacetate] | 0.8 | 1.0 | 1.4 | 2.3 | 0.9 | – | – | – | – | –
O=C(Oc1c(F)c(F)c(F)c(F)c1F)c1cc(C(F)(F)F)cc(C(F)(F)F)c1 [fragment 21, Pentafluorophenyl 3,5-bis(trifluoromethyl)benzoate] | 0.8 | 0.9 | 1.2 | 1.4 | 0.8 | – | – | – | – | –
Cn1cc(CC(=O)Oc2c(F)c(F)c(F)c(F)c2F)c2ccccc21 [fragment 22, Pentafluorophenyl 2-(1-methyl-1H-indol-3-yl)acetate] | 0.7 | 1.1 | 2.5 | 3.6 | 1.6 | – | – | – | – | –
O=C(Oc1ccc([N+](=O)[O-])cc1[N+](=O)[O-])C(c1ccccc1)c1ccccc1 [fragment 30, 2,4-Dinitrophenyl 2,2-diphenylacetate] | – | – | – | – | – | – | 0.6 | 1.8 | 20.0 | 4.1

The next lines start with results.

R value (DMSO/fragment) for probe 1 labeling [1] | R value (DMSO/fragment) for probe 1 labeling [2] | R value (DMSO/fragment) for probe 1 labeling [3] | R value (DMSO/fragment) for probe 1 labeling [4] | R value (DMSO/fragment) for probe 1 labeling [5] | isoTOP-ABPP reactivity ratio at lysine Q96EL2_K94 [5] | Structure (SMILES) | isoTOP-ABPP reactivity ratio at lysine Q9HC38_K305 [1] | isoTOP-ABPP reactivity ratio at lysine P00367_K480 [3] | isoTOP-ABPP reactivity ratio at lysine P12956_K351 [4] | isoTOP-ABPP reactivity ratio at lysine Q12931_K699 [2]
0.9 | 1.0 | 1.8 | 1.2 | 2.1 | – | COc1cc(CCC(=O)Oc2c(F)c(F)c(F)c(F)c2F)cc(OC)c1OC [fragment 23, Pentafluorophenyl 3-(3,4,5-trimethoxyphenyl)propanoate] | – | – | – | –
– | – | – | – | – | 2.7 | O=C(CCc1coc2cc(F)ccc2c1=O)Oc1c(F)c(F)c(F)c(F)c1F [fragment 26, Pentafluorophenyl 3-(7-fluoro-4-oxo-4H-chromen-3-yl)propanoate] | 0.8 | 1.6 | 2.1 | –
